One assay concerns SW-620. The experiment in a line: Antiproliferative activity against human SW620 cells harbouring KRAS G12 V mutant and RON delta 155 assessed as cell growth inhibition measured after 72 hrs by MTS assay. Format: functional. A general note: Tetrazolium dyes change colour on reduction, which living cells bring about.
For assay [1], the target named is Macrophage-stimulating protein receptor (Homo sapiens, UniProt Q04912). Kind of assay: Inhibition of N-terminal GST-tagged human recombinant RON (979 to 1400(end) residues) expressed in Sf21 cells incubated for 20 mins followed by ATP addition measured after 60 mins by TR-FRET based LanthaScreen kinase assay. (Time-resolved FRET reads energy transfer from a long-lived donor to a nearby acceptor.)

In assay [2] the test system is KM12C. The experiment in a line: Antiproliferative activity against human KM12-C cells harbouring wild-type KRAS and RON delta 160 assessed as cell growth inhibition measured after 72 hrs by MTS assay. Format: functional.
Assay [3] relates to HT-29. Kind of assay: Antiproliferative activity against human HT-29 cells harbouring wild-type KRAS and RON delta 160 assessed as cell growth inhibition measured after 72 hrs by MTS assay. Type of assay: functional.
Assay [4] has as its system HT-29. The experiment in a line: Antiproliferative activity against human HT-29 cells harbouring wild-type KRAS and RON delta 160 assessed as cell death rate at 5 uM measured after 48 hrs by trypan blue exclusion assay relative to control. Type of assay: functional.
The subject of assay [5] is KM12C. The experiment in a line: Antiproliferative activity against human KM12-C cells harbouring wild-type KRAS and RON delta 160 assessed as cell death rate at 5 uM measured after 48 hrs by trypan blue exclusion assay relative to control. Type of assay: functional.

Calls of active or inactive are those of the source. The rule behind the calls is not given here.

As usually defined, the GI50 is the concentration giving 50% growth inhibition. The term IC50 denotes the midpoint of a concentration-inhibition curve.

`CCOc1ccn(-c2ccc(F)cc2)c(=O)c1C(=O)Nc1ccc(Oc2ccnc3cc(-c4ccc(CN5CCC(F)(F)C5)cn4)sc23)c(F)c1`: the results for the 50% growth inhibitory concentration (GI50) in the assay on SW-620, in the assay on KM12C [2] and in the assay with HT-29 [3] were 620 nM, 9 nM and 4880 nM, respectively. Further, the IC50 in assay [1] worked out at 0.86 nM.
For `CCOc1ccn(-c2ccc(F)cc2)c(=O)c1C(=O)Nc1ccc(Oc2ccnc3cc(-c4ccc(CN5CCC(OC)CC5)cn4)sc23)c(F)c1` the same measures were 700 nM, 19 nM, 1770 nM and 0.73 nM.
In the case of `CCOc1ccn(-c2ccc(F)cc2)c(=O)c1C(=O)Nc1ccc(Oc2ccnc3cc(-c4ccc(CCN5CCOCC5)cn4)sc23)c(F)c1`, the GI50 with SW-620 was 830 nM; with KM12C [2], 26 nM; with HT-29 [3] it was 650 nM. The half-inhibitory concentration (IC50) in assay [1] was found to be 2.83 nM.
For `CCOc1ccn(-c2ccc(F)cc2)c(=O)c1C(=O)Nc1ccc(Oc2ccnc3cc(-c4ccc(OCCN5CCOCC5)cn4)sc23)c(F)c1`, the GI50 was determined as 1560 nM with SW-620, 38 nM in the assay on KM12C [2] and 2770 nM with HT-29 [3]. In assay [1], the IC50 came to 2.39 nM.
Turning to `CCOc1ccn(-c2ccc(Cl)cc2)c(=O)c1C(=O)Nc1ccc(Oc2ccnc3cc(-c4ccc(CN5CCOCC5)cn4)sc23)c(F)c1`, the GI50 with SW-620 was determined as 580 nM; in the assay with KM12C [2], 25 nM; in the assay on HT-29 [3], 600 nM.
Turning to `CCOc1ccn(-c2cccc(F)c2)c(=O)c1C(=O)Nc1ccc(Oc2ccnc3cc(-c4ccc(CN5CCOCC5)cn4)sc23)c(F)c1`, the concentration for 50% growth inhibition (GI50) with SW-620 was determined as 640 nM; in the assay on KM12C [2] it was 42 nM; in the assay on HT-29 [3], 395 nM. For the same compound, the IC50 in assay [1] came out at 0.74 nM. Further, the result with HT-29 [4] and in the assay on KM12C [5] was Active.
For `CCOc1ccn(-c2ccc(F)cc2)c(=O)c1C(=O)Nc1ccc(Oc2ccnc3cc(-c4ccc(CN5CC(OC)C5)cn4)sc23)c(F)c1`, the GI50 in the assay with SW-620 is 1030 nM; in the assay with KM12C [2], 27 nM; in the assay with HT-29 [3] it was 1640 nM. For the same compound, the IC50 in assay [1] is 0.16 nM.
For `CCOc1ccn(-c2ccc(F)cc2)c(=O)c1C(=O)Nc1ccc(Oc2ccnc3cc(-c4ccc(CN5CCC(F)CC5)cn4)sc23)c(F)c1` the same measures were 560 nM, 17 nM, 2440 nM and 1.82 nM.
On to `CCOc1ccn(-c2ccc(F)cc2)c(=O)c1C(=O)Nc1ccc(Oc2ccnc3cc(-c4ccc(CN5CCC(F)C5)cn4)sc23)c(F)c1` (stereo not given), for which the results for the GI50 with SW-620, with KM12C [2] and in the assay with HT-29 [3] were 540 nM, 16 nM and 650 nM, respectively. Besides, the IC50 in assay [1] stood at 0.82 nM.
For `CCOc1ccn(-c2ccc(F)cc2)c(=O)c1C(=O)Nc1ccc(Oc2ccnc3cc(-c4ccc(CN5CC(F)(F)C5)cn4)sc23)c(F)c1` the same measures were 780 nM, 24 nM, 970 nM and 0.48 nM.
The matching figures for `CCOc1ccn(-c2ccc(F)cc2)c(=O)c1C(=O)Nc1ccc(Oc2ccnc3cc(-c4ccccn4)sc23)c(F)c1`: 1550 nM, 22 nM, 3140 nM and 0.48 nM.
Regarding `CCCCOc1ccn(-c2ccc(F)cc2)c(=O)c1C(=O)Nc1ccc(Oc2ccnc3cc(-c4ccc(CN5CCOCC5)cn4)sc23)c(F)c1`, the GI50 in the assay with SW-620 is 1000 nM; in the assay on KM12C [2], 15 nM; with HT-29 [3], 840 nM. In addition, the IC50 in assay [1] is 0.98 nM.
Take `CN1CCC(Oc2ccn(-c3ccc(F)cc3)c(=O)c2C(=O)Nc2ccc(Oc3ccnc4cc(-c5ccc(CN6CCOCC6)cn5)sc34)c(F)c2)C1` (stereo not given): the GI50 with SW-620 worked out at 3660 nM; in the assay with KM12C [2], 55 nM; in the assay on HT-29 [3], 5610 nM. For the same compound, the IC50 in assay [1] was 5.47 nM.
On to `CCCOc1ccn(-c2ccc(F)cc2)c(=O)c1C(=O)Nc1ccc(Oc2ccnc3cc(-c4ccc(CN5CCOCC5)cn4)sc23)c(F)c1`, for which the GI50 came to 590 nM in the assay on SW-620, 10 nM with KM12C [2] and 500 nM in the assay with HT-29 [3]. For the same compound, the IC50 in assay [1] turned out to be 0.49 nM. The result in the assay on HT-29 [4] and with KM12C [5] was Active.
Regarding `CCOc1ccn(-c2ccc(F)cc2)c(=O)c1C(=O)Nc1cc(F)c(Oc2ccnc3cc(-c4ccc(CN5CCOCC5)cn4)sc23)c(F)c1`, the GI50 with SW-620 was 1350 nM; in the assay on KM12C [2] it was 40 nM; with HT-29 [3], 642 nM. Further, the IC50 in assay [1] was found to be 2.25 nM.
In the case of `CCOc1ccn(-c2ccc(F)cc2)c(=O)c1C(=O)Nc1ccc(Oc2ccnc3cc(-c4ccc(CN5CCC(OC)C5)cn4)sc23)c(F)c1` (stereo not given), the GI50 in the assay with SW-620 was 360 nM; in the assay on KM12C [2] it was 23 nM; with HT-29 [3], 7710 nM. Also, the IC50 in assay [1] stood at 0.69 nM.
The matching figures for `CCOc1ccn(-c2ccc(F)cc2)c(=O)c1C(=O)Nc1ccc(Oc2ccnc3cc(-c4ccc(CN5CCC(F)(F)CC5)cn4)sc23)c(F)c1`: 7370 nM, 27 nM, 660 nM and 6 nM.
With `CCOc1ccn(-c2ccccc2)c(=O)c1C(=O)Nc1ccc(Oc2ccnc3cc(-c4ccc(CN5CCOCC5)cn4)sc23)c(F)c1`, the GI50 was determined as 260 nM in the assay on SW-620 and 3 nM in the assay with KM12C [2]. The result in the assay on HT-29 [4] and in the assay on KM12C [5] was Active.
Consider `CCOc1ccn(-c2ccc(F)cc2)c(=O)c1C(=O)Nc1ccc(Oc2ccnc3cc(-c4ccc(CN5CCOCC5)cn4)sc23)c(Cl)c1`, for which the figures for the GI50 in the assay with SW-620, in the assay on KM12C [2] and in the assay with HT-29 [3] were 1090 nM, 15 nM and 660 nM, respectively.
As to `CN1CCC(COc2ccn(-c3ccc(F)cc3)c(=O)c2C(=O)Nc2ccc(Oc3ccnc4cc(-c5ccc(CN6CCOCC6)cn5)sc34)c(F)c2)C1` (stereo not given), in assay [1], the IC50 is 75.6 nM.
On to `CCOc1ccn(-c2ccc(F)cc2)c(=O)c1C(=O)Nc1ccc(Oc2ccnc3cc(-c4ccc(CN5CCOCC5)cn4)sc23)cc1Cl`, for which the GI50 came out at 2840 nM in the assay on SW-620, 6 nM with KM12C [2] and 1560 nM in the assay on HT-29 [3].
Regarding `CN(C)CCOc1ccn(-c2ccc(F)cc2)c(=O)c1C(=O)Nc1ccc(Oc2ccnc3cc(-c4ccc(CN5CCOCC5)cn4)sc23)c(F)c1`, the results for the GI50 in the assay on SW-620, in the assay on KM12C [2] and with HT-29 [3] were 1920 nM, 35 nM and 970 nM, respectively. Further, in assay [1], the IC50 turned out to be 2.15 nM.
`CCOc1ccn(-c2ccc(F)cc2)c(=O)c1C(=O)Nc1ccc(Oc2ccnc3cc(-c4ccc(CN5CC(F)C5)cn4)sc23)c(F)c1`: the 50% growth inhibitory concentration (GI50) was found to be 200 nM in the assay with SW-620, 16 nM with KM12C [2] and 1250 nM with HT-29 [3]. The half-inhibitory concentration (IC50) in assay [1] amounted to 0.63 nM.
For `O=C(Nc1ccc(Oc2ccnc3cc(-c4ccc(CN5CCOCC5)cn4)sc23)c(F)c1)c1c(OCCC2CC2)ccn(-c2ccc(F)cc2)c1=O` the same measures were 2370 nM, 11 nM, 860 nM and 0.72 nM.
Regarding `CCOc1ccn(-c2ccc(C(F)(F)F)cc2)c(=O)c1C(=O)Nc1ccc(Oc2ccnc3cc(-c4ccc(CN5CCOCC5)cn4)sc23)c(F)c1`, the IC50 in assay [1] is 17.3 nM.
`CCOc1ccn(-c2ccc(F)cc2)c(=O)c1C(=O)Nc1ccc(Oc2ccnc3cc(-c4ccc(CNCCOC)cn4)sc23)c(F)c1`: the figures for the GI50 in the assay on SW-620, in the assay on KM12C [2] and in the assay on HT-29 [3] were 440 nM, 3400 nM and 590 nM, respectively.
In the case of `CCOc1ccn(-c2ccc(F)cc2)c(=O)c1C(=O)Nc1ccc(Oc2ccnc3cc(-c4ccc(CN5CCN(C)CC5)cn4)sc23)c(F)c1`, the GI50 was 680 nM in the assay on SW-620 and 9 nM in the assay on KM12C [2].
